The test system of assay [1] is spontaneously hypertensive rats (SHR) of the Okamoto strain. Nature of the assay: Antihypertensive effect in conscious, unrestrained spontaneously hypertensive rats, oral cumulative dosing. To be noted: Rattus norvegicus; dose giving 20 per cent reduction of mean arterial BP, by interpolation; oral intubation in methocel, cumulated doses 1, 5 and 25 µmoles/kg at 2 hour intervals. The format is in vivo. On the procedure: The antihypertensive effect of the compounds was tested in conscious, unrestrained spontaneously hypertensive rats (SHR) of the Okamoto strain. The animals had been prepared by prior implantation of indwelling catheters in the abdominal aorta via the femoral artery. Mean arterial blood pressure (MABP) and heart rate were continuously monitored. After a 2 hour control period the compound under study was administered by oral intubation at 2 hour intervals, suspended in methocel solution (5 ml/kg bodyweight). The cumulated doses were 1, 5 and 25)jmoles/kg bodyweight. The antihypertensive response, i.e. the BP'reduction to each dose, was expressed as a percentage of the initial control BP level and plotted against the dose on a logarithmic scale. The dose which would give 20 per cent BP reduction was then determined by interpolation.

Assay [2] has as its system isolated portal vein preparation / paced isolated papillary heart muscle preparation. The assay is described as follows: Specificity towards smooth muscle relaxation: isolated portal vein versus paced papillary heart muscle in an organ bath. Also on record: species or system Wistar rats. To be noted: separation value: averaged difference of -log ED50 portal vein (vasodilatation) and -log ED50 papillary muscle (myocardial depression), transformed into numeric format. As for the experimental part:
The specificity towards smooth muscle relaxation was examined as follows: The isolated portal vein preparation of Wistar rats was mounted in an organ bath together with a paced isolated papillary heart muscle preparation of the same animal. The integrated contractile activity of the portal vein smooth muscle and the peak force amplitude of the papillary, myocardial, preparation were recorded. The respective activities during a 30 min control period were set as 100 per cent and the ensuing activities under the influence of an agent under study were expressed as a percentage thereof. The agent was administered at 10 min intervals and the potency for vasodilatation (-log ED50 of portal vein) and that of myocardial depression (-log ED50 of ^pa^pill- ary muscle) were determined by interpolation from the concentration-effect relationships determined in each experiment. A "separation" value was determined for each compound by averaging the differences of the -log ED50 values for vasodilatation and myocardial depression, respectively, ogtained in the experiments. This logarithmic separation value was transformed into numeric format and entered into table 2.

Among the data in patent EP0095451A2, “Novel dihydropyridines” (priority 1982, dated 1983) are ED20 and Ratio heart vasc. values, retold here.

Compound `COC(=O)C1=C(C)NC(C)=C(C(=O)OCCSCCN(C)C)C1c1cccc(C#N)c1` (stereo not drawn) [Compound 3, 2,6-dimethyl-4-(3-cyanophenyl)-1,4-dihydropyridine-3,5--dicarboxylic acid-3-[2-(2-N,N-dimethylaminoethylthio)ethyl)--5-methyl ester] yielded an ED20 in assay [1] of 50 µmol/kg. For the same compound, the Ratio heart vasc. in assay [2] was 18.

Consider `COCCOC(=O)C1=C(C)NC(C)=C(C(=O)OCCSCCN(C)C)C1c1cccc(Cl)c1Cl` (stereo not drawn) [Compound 7, 2,6-dimethyl-4-(2,3-dichlorophenyl)-1,4-dihydropyridine--3,5-dicarboxylic acid-3-[2-(2-N,N-dimethylaminoetylthio-ethyl]-5-12-methoxyethyl) ester], for which, in assay [1], the ED20 worked out at 56 µmol/kg. In addition, the Ratio heart vasc. in assay [2] turned out to be 20. In assay [1], `COC(=O)C1=C(C)NC(C)=C(C(=O)OCCSCCN(Cc2ccccc2)C(C)C)C1c1cccc(Cl)c1Cl` (stereo not drawn) [Compound 10] returned an ED20 of 9 µmol/kg. Moreover, in assay [2], the Ratio heart vasc. came out at 22. Take `COC(=O)C1=C(C)NC(C)=C(C(=O)OCCSCCCN(C)C)C1c1cccc(Cl)c1Cl` (stereo not drawn) [Compound 11, 2,6-dimethyl-4-(2,3-dichlorophenyl)-1,4-dihydropyridine--3,5-dicarboxylic acid-3-[2-(3-N,N-dimethylaminopropylthio)-ethyl]-5-methyl ester]: the Ratio heart vasc. in assay [2] is on record as 3. In turn, `COC(=O)C1=C(C)NC(C)=C(C(=O)OCCSCCN(C)C)C1c1cccc([N+](=O)[O-])c1` (stereo not drawn) [Compound 1, 2,6-dimethyl-4-(3-nitrophenyl)-1,4-dihydropyridine-3,5--dicarboxylic acid-3-[2-(N,N-dimethylaminoethylthio)ethyl]--5-methyl ester] returned an ED20 in assay [1] of 16 µmol/kg. Further, the Ratio heart vasc. in assay [2] turned out to be 30.

The compound `COCCOC(=O)C1=C(C)NC(C)=C(C(=O)OCCSCCN2CCOCC2)C1c1cccc(Cl)c1Cl` (stereo not drawn) [Compound 13, 2,6-dimethyl-4-(2,3-dichlorophenyl)-1,4-dihydropyridine-3,5-dicarboxylic acid-3-[2-(2-morpholinoethyl-thio)ethyl]-5-(2-methoxethyl) ester] gave an ED20 in assay [1] of 15 µmol/kg. For the same compound, in assay [2], the Ratio heart vasc. was 70.

In assay [1], `COC(=O)C1=C(C)NC(C)=C(C(=O)OC)C1c1ccccc1[N+](=O)[O-]` [Nifedipine, 2,6-dimethyl-4-(2-nitrophenyl)-1,4-dihydropyridine-3,5-dicarboxylic acid-3,5-dimethylester, reference compound] came in with an ED20 of 5 µmol/kg. Besides, in assay [2], the Ratio heart vasc. is reported as 15.

Take `CCN(CC)CCSCCOC(=O)C1=C(C)NC(C)=C(C(=O)OC)C1c1cccc(Cl)c1Cl` (stereo not drawn) [Compound 8]: the ED20 in assay [1] amounted to 6 µmol/kg. For the same compound, the Ratio heart vasc. in assay [2] stood at 4. In the case of `CCOC(=O)C1=C(C)NC(C)=C(C(=O)OCCSCCN(C)C)C1c1cccc(Cl)c1Cl` (stereo not drawn) [Compound 6, 2,6-dimethyl-4-(2,3-dichlorophenyl]-1,4-dihydropyridine--3,5-dicarboxylic acid-3-[2-(2-N,N-dimethylaminoethylthio)-ethyl]-5-ethyl ester], the ED20 in assay [1] came out at 25 µmol/kg. In addition, the Ratio heart vasc. in assay [2] turned out to be 16. Compound `CC1=C(C(=O)OCCSCCN(C)C)C(c2cccc(Cl)c2Cl)C(C(=O)OC(C)C)=C(C)N1` (stereo not drawn) [Compound 5, 2,6-dimethyl-4-(2,3-dichlorophenyl)-1,4-dihydropyridine--3,5-dicarboxylic acid-3-[2-(2-N,N-dimethylaminoethylthio)-ethyl)-5-(2-methylethyl)ester] yielded an ED20 in assay [1] of 20 µmol/kg. In assay [2], the Ratio heart vasc. amounted to 19. For `COC(=O)C1=C(C)NC(C)=C(C(=O)OCCSCCN(C)C)C1c1ccccc1[N+](=O)[O-]` (stereo not drawn) [Compound 2, 2,6-dimethyl-4-(2-nitrophenyl)-1,4-dihydropyridine-3,5--dicarboxylic acid-3-[2-(2-N,N-dimethylaminoethylthio)ethyl]--5-methyl ester], the ED20 in assay [1] worked out at 30 µmol/kg. Further, the Ratio heart vasc. in assay [2] was 5. In turn, `COC(=O)C1=C(C)NC(C)=C(C(=O)OCCSCCN(C)C)C1c1cccc(Cl)c1Cl` (stereo not drawn) [Compound 4, 2,6-dimethyl-4-(2,3-dichlorophenyl)-1,4-dihydropyridine-3,5-dicarboxylic acid-3-[2-(2-N,N-dimethyl-aminoethylthio)ethyl]-5-methyl ester] gave an ED20 in assay [1] of 19 µmol/kg. Also, the Ratio heart vasc. in assay [2] turned out to be 3. As to `COCCOC(=O)C1=C(C)NC(C)=C(C(=O)OCCSCCN(Cc2ccccc2)C(C)C)C1c1cccc(Cl)c1Cl` (stereo not drawn) [Compound 12, 2,6-dimethyl-4-(2,3-dichlorophenyl)-1,4-dihydropyridine--3,5-dicarboxylic acid-3-[2-(2-N-isopropyl-N-benzylethyl-thio)ethyl]-5-(2-methoxyethyl) ester], the ED20 in assay [1] is 26 µmol/kg. Moreover, in assay [2], the Ratio heart vasc. is 50. The corresponding values for `COC(=O)C1=C(C)NC(C)=C(C(=O)OCCSCCN2CCOCC2)C1c1cccc(Cl)c1Cl` (stereo not drawn) [Compound 9, 2,6-dimethyl-4-(2,3-dichlorophenyl)-1,4-dihydropyridine--3,5-dicarboxylic acid-3-[2-(2-morpholinoethylthio)-ethyl]--5-methyl ester] are 5 µmol/kg and 27.
